Results published in patent publication US8993626B2, “Methods of treatment using sterculic acid” (The United States of America, as represented by the …, priority 2010, dated 2015).
“Also recorded” adds a separate entry of the source.

Tests used:
ARPE19 cells [1] = assay: CellTiter-Glo luminescent cell viability assay, 15 μM 7KCh-induced cytotoxicity; assay type: cell-based, human; details: 24 hr, CellTiter-Glo
Description: Error bar: standard deviation, n=4.
CellTiter-Glo® Luminescent Cell Viability Assay is a homogeneous method of determining the number of viable cells in culture based on quantitation of the ATP (luminescent signal) present, an indicator of metabolically active cells.
The contents in a plate were mixed for 2 min on an orbital shaker to induce cell lysis.
5) The plate was allowed to incubate at room temperature for 10 min to stabilize luminescent signal.

ARPE19 cells [2] = assay: Phase-contrast images of cells after co-treatment with 15 μM 7KCh; assay type: cell-based, human; details: 1 μM fatty acid + 15 μM 7KCh, 24 hr
Description: FIG. 8 depicts phase-contrast images of ARPE19 cells at 24 hr after sterculic acid co-treatment with 7KCh.

ARPE-19 cells [3] = assay: Fatty acids against 7KCh-mediated cell death (CCK8); assay type: cell-based; details: 12 μM 7KCh for 24 hr; tested 0.1, 0.5, 1, 5 and 10 μM
Description: FIGS. 12A-12C depict ARPE-19 cell viability in response to 12 μM 7KCh with or without 0.1-5 μM (A) sterculic acid and (B) stearic acid after 24 hr treatments. Error bars indicate the standard deviations. n=3-5. Two-tailed Student's t-test. (C) Representative images of changes in cell morphology in response to 12 μM 7KCh with or without 1 μM sterculic acid and stearic acid after 24 hr treatments.
(§1) ARPE-19 cells were seeded in 24-well plates with 1×10^5 cells per well and allowed to recover for 16-24 hr. Once confluency reached approximately 90%, the effect of the fatty acids against 7KCh-mediated cell death was examined 24 hr after incubation in serum-free medium with 12 μM 7KCh. Fatty acids were tested at 0.1, 0.5, 1, 5 and 10 μM concentrations. The effects of the fatty acids against 7KCh-mediated inflammation and ER stress were examined by incubating cells in 1 μM fatty acids with either 8 μM 7KCh (24 hr for quantitative real-time PCR (qRT-PCR), 24 and 48 hr for immunoblot), or 6 μM 7KCh for 48 hr (for ELISA). Three individual experiments were performed for each treatment with quadruplicate measurements performed for each experiment in 24-well plates.
The cell viability was determined by the dehydrogenase activity of the ARPE-19 cells using Cell Counting Kit-8 (CCK8, Dojindo, Gaithersburg, Md.) according to manufacturer's protocol.
The lowest effective concentrations of fatty acids that offset the 7KCh-mediated cell death were determined. […] Table 3 lists the lowest concentrations of these fatty acids required to maintain full cell viability against 12 μM 7KCh treatment. All unsaturated fatty acids protected against 7KCh-induced cell death. […] DHA, α-linolenic, and linoleic acid prevented 7KCh-mediated cell death at 5 μM but the rest of unsaturated fatty acids and dihydrosterculic acid required 10 μM to be protective.

ARPE-19 cells [4] = assay: qRT-PCR of inflammatory cytokines and ER stress markers, 7KCh-mediated inflammation; assay type: cell-based
Description: FIGS. 13A-13D depict mRNA expressions of (A) VEGF, (B) IL-6, (C) GRP78, and (D) CHOP in response to 8 μM 7KCh with or without 1 μM long-chain fatty acids. Error bars indicate the standard deviations. *p<0.05 comparing to 7KCh, n=3. Two-tailed Student's t-test.
(§2) FIGS. 14A-14D depict mRNA expressions of (A) VEGF, (B) IL-1b, (C) IL-6, and (D) IL-8 in response to 8 μM 7KCh, 1 μM sterculic acid, 1 μM stearic acid, or the combinations of 7KCh with either sterculic acid or stearic acid. Error bars indicate the standard deviations. *p<0.05 comparing to 7KCh, n=4. Two-tailed Student's t-test.
as §2, with “15A-15D” for “14A-14D”, “TNF-α,” for “VEGF,”, “TGF-β1,” for “IL-1b,”, “GRP78,” for “IL-6,”, “CHOP” for “IL-8”, “n=3-4.” for “n=4.”
as §1
(§3) The RNA was extracted using RNeasy Mini Kit (Qiagen, Valencia, Calif.). The reverse transcription was performed with reagents and kits from Invitrogen. Quantification of mRNA expression was performed using the Taqman gene expression assays and the following primers (VEGFa, Hs00173626_m1; IL-1β, Hs01555413_m1; IL-6, Hs00174131_m1; IL-8, Hs00174103_m1; IκBα, Hs00153283_m1; GRP78, Hs99999174_m1; CHOP, Hs01090850_m1; NOX2, Hs00166163_m1; NOX4, Hs01558199_m1; SCD, Hs00748952 s1; TNF-α, Hs00174128_m1; TGF-β1, Hs00998133_m1; GAPD, 4352934e). GAPD expression was used as an endogenous standard. All qRT-PCR experiments were measured in triplicates in an ABI 7500 Real-Time PCR Instrument (Applied Biosystems, Foster City, Calif.). The results of each treatment were normalized and presented in percentage relative to the vehicle-only control.

D407 cells = assay: 7-ketocholesterol-mediated cytotoxicity, 24-well CCK-8 viability; details: 5 μM co-treatment with 11 μM 7KCh, 24 hr
ARPE19 cells [5] = assay: Cell Counting Kit-8 viability assay, 15 μM 7KCh-induced cytotoxicity
Description: 4×10^4 cells were seeded onto wells of a 96 well plate. […] Cell viability was determined as celluar dehydrogenase activity and expressed as the percentage of compound treated cells relative to that of untreated controls. error bar: standard deviation, n=4.
The kit allows sensitive colorimetric assays for the determination of the number of viable cells in cell proliferation and cytotoxicity assays. The amount of the formazan dye generated by the activity of dehydrogenases in cells is directly proportional to the number of living cells.
1) Cells were cultivated in a 96 well cell plate (Costar#3599, Corning Incorp, Corning, N.Y.).
2) The cell suspension (40,000 cells/100 μL) were added to 100 μL culture media per well and stood for 15 min at room temperature and cultured at 37° C. in a humidified 5% CO2 atmosphere.
3) Approximately 19 hr after seeding, when the cells were fully confluent, the cells were treated with either DMSO or 1 μM fatty acid in 200 μL of serum free media and subsequently added with 15 μM 7KCh in HPBCD. Then, the plate was swirled for mixing. The cells were also treated with DMSO and HPBCD, which served as vehicle control. The final DMSO and HPBCD concentrations in the media were in the range of 0.1% and 0.0675%, respectively.
Cell viability was expressed as the percentage of compound treated cells relative to that of untreated controls. Prior to measure cell viability, the cells were imaged live by Nikon TE 2000-U inverted fluorescent microscope.

ARPE19 cells [6] = assay: Microelectronic cell sensor assay (RT-CES), 7KCh-induced cytotoxicity; details: 1 μM fatty acid + 15 μM 7KCh, serum free media
Description: 4×10^4 cells were seeded onto wells of 16× microtiter plates. […] Cell viability was determined as a cell index (CI) calculated from the impedance of each well automatically by the RT-CES system once per hr until the end of the experiment. The data was normalized at the point immediately prior to compound treatment.
RT-CES® System is a cell-based assay system that monitors cellular events by measuring the electronic impedance of sensor electrodes integrated on the bottom of microtiter E-Plates. The presence of the cells will lead to an increase in the electrode impedance. The more cells attached to the sensor, the higher the impedance that could be monitored with RT-CES.
1) Cells were cultivated in the ACEA's 16X E-plate device containing microelectrodes at the bottom of each well to measure contact area and electrical properties of adherent cells. […]
4) Cell growth was monitored periodically (every 1 hr) for indicated durations via calculation of a “cell index” (reflect to the surface area covered by the cells) in each well. […]
6) The sensor devices were put into the incubator again and the cells were continuously monitored cellular status changes.
7) Cell viability was determined as a cell index (CI) calculated from the impedance of each well automatically by the RT-CES system once per hr until the end of the experiment. […]

ARPE19 cells [7] = assay: 7-ketocholesterol-mediated cytotoxicity, 24-well CCK-8 viability and images; details: 24 hr
ARPE-19 cells [8] = assay: ELISA of secreted VEGF, IL-6, IL-8 in conditioned medium; assay type: cell-based; details: 6 μM 7KCh alone or with 1 μM fatty acid, 48 hr
Description: FIGS. 16A-16E depict the secreted protein levels of (A) VEGF, (B) IL-6, and (C) IL-8 were measure by ELISA 48 hr after treatment with 6 μM 7KCh, 1 μM sterculic acid, 1 μM stearic acid, or the combinations of 7KCh with either sterculic acid or stearic acid. Error bars indicate the standard deviations. *p<0.05 comparing to 7KCh, n=3. Two-tailed Student's t-test. The expressions of GRP78 and CHOP were shown by immunoblots (D) 24 hr or (E) 48 hr after treatment with 8 μM 7KCh, 1 μM sterculic acid, 1 μM stearic acid, or the combinations of 7KCh with either sterculic acid or stearic acid.
as §1
The levels of secreted VEGF, IL-6, IL-8, and TNF-α in conditioned medium of ARPE-19 cell cultures were measured 48 hr after treatments of 6 μM 7KCh and 1 μM fatty acids using the Quantkine ELISA kits from R&D systems (Minneapolis, Minn.). The protein levels were measured in triplicates. The ELISA results were quantified using an Envision multilable plate reader (PerkinElmer, Covina, Calif.) and presented in percentage relative to the vehicle-only control.

[9] = test system: stearoyl-CoA desaturase (SCD); assay: SCD mRNA expression (qRT-PCR); assay type: cell-based; details: 4 μM 7KCh, 24 hr
Description: FIGS. 18A and 18B depict (A) Dose response of SCD mRNA inductions by 0-12 μM 7KCh after 24 hr treatments. (B) The mRNA expressions of SCD in response to 8 μM 7KCh, 1 μM sterculic acid, 1 μM stearic acid, or the combinations of 7KCh with either sterculic acid or stearic acid. Error bars indicate the standard deviations. n=4.
as §3
To determine the effect of 7KCh on SCD expression ARPE-19 cells were incubated with 4 μM 7KCh for 24 hr. 7KCh suppressed SCD mRNA expression by approximately 60-70% (FIG. 18A). […] Treatment of the cells with 8 μM 7KCh and 1 μM sterculic acid further suppress SCD expression to 86% (FIG. 18B). […] This is the only instance where 7KCh and sterculic acid worked synergistically rather than antagonistically.

[10] = 7-ketocholesterol-mediated cytotoxicity, 24-well CCK-8 viability; details: human

CCCCCCCC/C=C\CCCCCCCC(=O)O [oleic acid]
increase of cell viability compared to 7KCh alone treatment (ARPE19 cells [1]; 1 μM fatty acid + 15 μM 7KCh): 10%
cell morphological changes compared to 7KCh alone (ARPE19 cells [2]): more cells compared to 7KCh alone
CONC. (μM): lowest concentration required to maintain full cell viability against 7KCh (ARPE-19 cells [3]): 10 µM
effect on 7KCh-mediated mRNA induction (inflammatory response) (ARPE-19 cells [4]; 1 μM fatty acid + 8 μM 7KCh, 24 hr, FIG. 13): either ineffective or enhanced
protection effect at 5 μM (D407 cells): slight effect; also recorded: not as significant comparing to sterculic acid
protective effect against cytotoxicity by 7KCh (summary of the viability assays) (ARPE19 cells [5]; 1 μM fatty acid + 15 μM 7KCh): slight protective effect
increase of cell viability compared to 7KCh alone treatment (ARPE19 cells [5]; 1 μM fatty acid + 15 μM 7KCh, 24 hr, CCK-8): 10%
protection from 7KCh induced cytotoxicity (cell index) (ARPE19 cells [6]): slight protective effect
protection of cell confluency and morphology (images) (ARPE19 cells [7]; 0.5 μM co-treatment with 12 μM 7KCh): no effect
protection of cell confluency and morphology (images) (ARPE19 cells [7]; 1 μM co-treatment with 12 μM 7KCh): slight effect; also recorded: do not have such protection effect
protection effect at 5 μM (ARPE19 cells [7]; 5 μM co-treatment with 12 μM 7KCh): slight effect; also recorded: slight protection

CC(C)CCC[C@@H](C)[C@H]1CC[C@H]2[C@@H]3C(=O)C=C4C[C@@H](O)CC[C@]4(C)[C@H]3CC[C@]12C [7KCh, 7-Ketocholesterol]
loss in cell viability (ARPE19 cells [1]; 15 μM 7KCh): 40-50%
VEGF mRNA expression (ARPE-19 cells [4]; 8 μM 7KCh alone or with 1 μM fatty acid, 24 hr, FIG. 13A): 4 fold
IL-6 mRNA expression (ARPE-19 cells [4]; 8 μM 7KCh alone or with 1 μM fatty acid, 24 hr, FIG. 13B): 22 fold
GRP78 mRNA expression (ARPE-19 cells [4]; 8 μM 7KCh alone or with 1 μM fatty acid, 24 hr, FIG. 13C): 4 fold
CHOP mRNA expression (ARPE-19 cells [4]; 8 μM 7KCh alone or with 1 μM fatty acid, 24 hr, FIG. 13D): 15 fold
induction of VEGF mRNA (ARPE-19 cells [4]; 8 μM 7KCh alone or with 1 μM fatty acid, FIG. 14A): 5.5 fold
induction of IL-1β mRNA (ARPE-19 cells [4]; 8 μM 7KCh alone or with 1 μM fatty acid, FIG. 14B): 6.7 fold
induction of IL-6 mRNA (ARPE-19 cells [4]; 8 μM 7KCh alone or with 1 μM fatty acid, FIG. 14C): 21 fold
induction of IL-8 mRNA (ARPE-19 cells [4]; 8 μM 7KCh alone or with 1 μM fatty acid, FIG. 14D): 4.7 fold
induction of TNF-α mRNA (ARPE-19 cells [4]; 8 μM 7KCh alone or with 1 μM fatty acid, FIG. 15A): 2.7 fold
induction of TGF-β1 mRNA (ARPE-19 cells [4]; 8 μM 7KCh alone or with 1 μM fatty acid, FIG. 15B): 1.3 fold
induction of GRP78 mRNA (ARPE-19 cells [4]; 8 μM 7KCh alone or with 1 μM fatty acid, FIG. 15C): 5.4 fold
induction of CHOP mRNA (ARPE-19 cells [4]; 8 μM 7KCh alone or with 1 μM fatty acid, FIG. 15D): 12 fold
secreted IL-6 protein expression (ARPE-19 cells [8]): 1.8 fold
secreted IL-8 protein expression (ARPE-19 cells [8]): 1.7 fold
secreted VEGF protein expression (ARPE-19 cells [8]): 1.6 fold
suppression of SCD mRNA expression [9]: 60-70%
CC50 at 24 h [10]: 11 µM
loss in cell viability (ARPE19 cells [5]; 15 μM 7KCh, 24 hr, CCK-8): 50-60%
